Results published in article PMC10387993, “New pyrimidine-N-β-D-glucosides: synthesis, biological evaluation, and molecular docking investigations” (Turkish Journal of Chemistry, 2023).
Converted amounts (≈) assume the structure as drawn. Read-outs that look alike come from different tables or passages of the source.

Assays:
Assay type in all cases: cell-based
[1] = test system: HeLa; test: cells; details: Homo sapiens; for GI50 / IC50 / IC (total growth inhibition): MTT; for IC50: read-out: IC50; for IC (total growth inhibition): read-out: TGI; for LC50 (concentration causing 50% net cell loss): read-out: LC50
Procedure: (§1) The cell lines were cultured in a cell medium (Dulbecco’s modified eagle’s or RPMI 1640) enriched with 10% (v/v) fetal bovine serum and 2% (v/v) Penicillin-Streptomycin (10,000 U/mL). First, old medium was removed out of the flask when the cells reached approximately 80% confluence. Next, cells were taken from the flasks surface using trypsin-EDTA solution and then subjected to centrifugation. Following, the cell pellet was suspended with fresh media and was inoculated into wells.
(§2) A cell suspension containing approximately 1 × 10^4 cells in 100 μL was seeded into the wells of 96-well culture plates. […]. The final volume of the wells was set to 200 μL by medium. Cell proliferation assay was evaluated by MTT (yellow tetrazolium MTT (3-(4,5-dimethylthiazolyl-2)-2,5-diphenyltetrazolium bromide) methods. Briefly, an MTT stock solution (5 mg of MTT/mL of distilled water) was filtered and kept at −20 °C until use. The cells were exposed to an MTT reagent (consisting of one parts of MTT stock solutions and nine parts of fresh RPMI 1640 without phenol red) for 4 h to form MTT formazan dye followed by the dye dissolved in DMSO with Sorenson’s buffer for 30 min at room temperature and then the plate was measured at 560 nm, with 690 nm as a reference interval, using a microplate reader. Each experiment was repeated at least three times for each cell line.
(§3) IC50 value is a concentration that inhibits half of the cells in vitro. The half maximal inhibitory concentration (IC50) of the test and control compounds was calculated using XLfit5 or excel spreadsheet and represent in μM at 95% confidence intervals. The proliferation assay results were expressed as the percent inhibition according to the following formula: % Inhibition = [1 - (Absorbance of Treatments /Absorbance of DMSO) × 100]. Three dose response parameters (GI50, TGI, LC50) were calculated according to the following formulas using the absorbance measurements of time zero (Tz), control growth (C), and test growth in the presence of drug (Ti). Growth inhibition of 50% (GI50) was calculated from [(Ti-Tz)/(C-Tz)] × 100 = 50, which is the drug concentration resulting in a 50% reduction in the net growth increase in control cells during the drug incubation. The drug concentration resulting in total growth inhibition (TGI) was calculated from Ti = Tz. The LC50 indicating a net loss of cells following treatment was calculated from [(Ti-Tz)/Tz] × 100 = −50.

[2] = test system: HT29; test: cells; details: Homo sapiens; for LC50 (concentration giving 50% net cell loss relative to time zero): HT-29, read-out: LC50; for GI50 / IC50 / IC (total growth inhibition): HT-29, HT29, MTT; for IC50: read-out: IC50; for IC (total growth inhibition): read-out: TGI
Procedure: as §1, §2, §3

[3] = test system: MCF7; test: cells; details: Homo sapiens; for LC50 (concentration causing 50% net cell loss relative to time zero): MCF7, read-out: LC50; for GI50 / IC50 / IC (total growth inhibition): MCF7, MTT; for IC50: read-out: IC50; for IC (total growth inhibition): read-out: TGI
Procedure: as §1, §2, §3

[4] = test system: C6 (Rat brain glioma); test: cells; details: Rattus norvegicus; for LC50 (concentration giving 50% net cell loss relative to time zero): read-out: LC50; for GI50 / IC50 / IC (total growth inhibition): C6, MTT; for IC50: read-out: IC50; for IC (total growth inhibition): read-out: TGI
Procedure: as §1, §2, §3

[5] = test system: Hep3B; test: cells; details: Homo sapiens; for GI50 / IC50 / IC (total growth inhibition): MTT; for IC50: read-out: IC50; for IC (total growth inhibition): read-out: TGI; for LC50 (concentration causing 50% net cell loss relative to time zero): read-out: LC50
Procedure: as §1, §2, §3

[6] = test system: A549; test: cells; details: Homo sapiens; for LC50 (concentration causing 50% net cell loss): A549, read-out: LC50; for GI50 / IC50 / IC (total growth inhibition): A549, MTT; for IC50: read-out: IC50; for IC (total growth inhibition): read-out: TGI
Procedure: as §1, §2, §3

[7] = LDH cytotoxic activity assay, HeLa; details: human, HeLa cells
Procedure: as §1
Approximately 5 × 10^3 cells in 100 μL were placed into 96-well plates as triplicates and treated with 25, 50, 75, and 100 μg/mL concentrations of test compounds at 37 °C with 5% CO2 for 24 h. LDH activity was obtained by determining absorbance at 492–630 nm using a microplate reader.

[8] = test system: E. faecalis VRE ATCC 19433; test: Microdilution MIC assay; details: Enterococcus faecalis; E. faecalis VRE ATCC 19433, 24 h at 35 °C
Procedure: (§4) MIC values of the compounds against bacterial strains were determined on the basis of a microwell dilution method. […] […]. Growth of microorganisms was determined visually after incubation for 24 h at 35 °C. The lowest concentration at which there was no visible growth (turbidity) was taken as the MIC.

[9] = test system: A. actinomycetemcomitans ATCC 33384; test: Microdilution MIC assay; details: Aggregatibacter actinomycetemcomitans, ATCC33384; A. actinomycetemcomitans ATCC 33384, 24 h at 35 °C
Procedure: as §4

[10] = test system: P. aeruginosa AGME ATCC 27853; test: Microdilution MIC assay; details: Pseudomonas aeruginosa, ATCC27853; P. aeruginosa AGME ATCC 27853, 24 h at 35 °C
Procedure: as §4

[11] = test system: E. coli ATCC 25922; test: Microdilution MIC assay; details: Escherichia coli, ATCC25922; E. coli ATCC 25922, 24 h at 35 °C
Procedure: as §4

[12] = test system: S. aureus ATCC 25923; test: Microdilution MIC assay; details: Staphylococcus aureus, ATCC25923, 24 h, S. aureus ATCC 25923, 24 h at 35 °C; read-out: MIC
Procedure: as §4

[13] = test system: E. coli ESBL ATCC 35218; test: Microdilution MIC assay; details: Escherichia coli, ATCC35218; E. coli ESBL ATCC 35218, 24 h at 35 °C
Procedure: as §4

[14] = test system: S. gordonii NCTC 7870; test: Microdilution MIC assay; details: Streptococcus gordonii, NCTC7870; S. gordonii NCTC 7870, 24 h at 35 °C
Procedure: as §4

[15] = test system: S. aureus MRSA ATCC 46300; test: Microdilution MIC assay; details: Staphylococcus aureus; S. aureus MRSA ATCC 46300, 24 h at 35 °C; read-out: MIC
Procedure: as §4

[16] = test system: S. mutans ATCC 35668; test: Microdilution MIC assay; details: S. mutans ATCC 35668, 24 h at 35 °C
Procedure: as §4

[17] = Streptococcus mutans, ATCC35668, 24 h, read-out: MIC

## CC(=O)OC[C@H]1O[C@@H](Nc2nc(-c3ccc(C)cc3)cc(-c3ccccn3)n2)[C@H](OC(C)=O)[C@@H](OC(C)=O)[C@@H]1OC(C)=O [Compound 16, 2,3,4,6-tetra-O-acetyl-N-[4-(4-methylphenyl)-6-pyridin-2-ylpyrimidin-2-yl]-β-D-glucopyranosylamine]
[1]
  GI50: 1.49 µg/mL (≈ 2.51 µM)
  IC50: 9.13 µg/mL (≈ 15.4 µM)
  IC (total growth inhibition): 3.28 µg/mL
  LC50 (concentration causing 50% net cell loss): 34.1 µg/mL (≈ 57.6 µM)
[2]
  LC50 (concentration giving 50% net cell loss relative to time zero): 122 µg/mL (≈ 205 µM)
  GI50: 1.47 µg/mL (≈ 2.48 µM)
  IC50: 3.26 µg/mL (≈ 5.5 µM)
  IC (total growth inhibition): 3.88 µg/mL
[3]
  LC50 (concentration causing 50% net cell loss relative to time zero): 495 µg/mL (≈ 835 µM)
  GI50: 1.41 µg/mL (≈ 2.38 µM)
  IC50: 4.12 µg/mL (≈ 6.95 µM)
  IC (total growth inhibition): 4.29 µg/mL
[4]
  LC50 (concentration giving 50% net cell loss relative to time zero): 22.9 µg/mL (≈ 38.6 µM)
  GI50: 1.4 µg/mL (≈ 2.36 µM)
  IC50: 4.38 µg/mL (≈ 7.39 µM)
  IC (total growth inhibition): 2.8 µg/mL
[5]
  GI50: 1.99 µg/mL (≈ 3.36 µM)
  IC50: 7.18 µg/mL (≈ 12.1 µM)
  IC (total growth inhibition): 7.33 µg/mL
  LC50 (concentration causing 50% net cell loss relative to time zero): 326 µg/mL (≈ 550 µM)
[6]
  LC50 (concentration causing 50% net cell loss): > 500 µg/mL
  GI50: 23.8 µg/mL (≈ 40.1 µM)
  IC50: > 500 µg/mL
  IC (total growth inhibition): > 500 µg/mL
[7]
  cytotoxicity at 24 h, 25 μg/mL: 35.7%
  cytotoxicity at 24 h, 50 μg/mL: 62.6%
  cytotoxicity at 24 h, 75 μg/mL: 77.1%
  cytotoxicity at 24 h, 100 μg/mL: 99.2%
[8]
  MIC: 1000 µg/mL (≈ 1690 µM)
[9]
  MIC: > 1000 µg/mL
[10]
  MIC: > 1000 µg/mL
[11]
  MIC: > 1000 µg/mL
[12]
  MIC: > 1000 µg/mL
[13]
  MIC: > 1000 µg/mL
[14]
  MIC: > 1000 µg/mL
[15]
  MIC: > 1000 µg/mL
[16]
  MIC: 125 µg/mL (≈ 211 µM)
[16]; [17]
  MIC: 62.5 to 125 µg/mL (≈ 105 to 211 µM)

## CC(=O)OC[C@H]1O[C@@H](Nc2nc(-c3ccc(C)cc3)cc(-c3cccnc3)n2)[C@H](OC(C)=O)[C@@H](OC(C)=O)[C@@H]1OC(C)=O [Compound 17, 2,3,4,6-tetra-O-acetyl-N-[4-(4-methylphenyl)-6-pyridin-3-ylpyrimidin-2-yl]-β-D-glucopyranosylamine]
[1]
  GI50: > 500 µg/mL
  IC50: > 500 µg/mL
  IC (total growth inhibition): > 500 µg/mL
  LC50 (concentration causing 50% net cell loss): > 500 µg/mL
[2]
  LC50 (concentration giving 50% net cell loss relative to time zero): > 500 µg/mL
  GI50: 3.09 µg/mL (≈ 5.21 µM)
  IC50: > 500 µg/mL
  IC (total growth inhibition): > 500 µg/mL
[3]
  LC50 (concentration causing 50% net cell loss relative to time zero): > 500 µg/mL
  GI50: 2.19 µg/mL (≈ 3.7 µM)
  IC50: > 500 µg/mL
  IC (total growth inhibition): > 500 µg/mL
[4]
  LC50 (concentration giving 50% net cell loss relative to time zero): > 500 µg/mL
  GI50: > 500 µg/mL
  IC50: > 500 µg/mL
  IC (total growth inhibition): > 500 µg/mL
[5]
  GI50: 3.86 µg/mL (≈ 6.51 µM)
  IC50: > 500 µg/mL
  IC (total growth inhibition): > 500 µg/mL
  LC50 (concentration causing 50% net cell loss relative to time zero): > 500 µg/mL
[6]
  LC50 (concentration causing 50% net cell loss): > 500 µg/mL
  GI50: 7.85 µg/mL (≈ 13.2 µM)
  IC50: > 500 µg/mL
  IC (total growth inhibition): > 500 µg/mL
[7]
  cytotoxicity at 24 h, 25 μg/mL: 16.7%
  cytotoxicity at 24 h, 50 μg/mL: 23.8%
  cytotoxicity at 24 h, 75 μg/mL: 32.4%
  cytotoxicity at 24 h, 100 μg/mL: 48.6%
[8]
  MIC: 1000 µg/mL (≈ 1690 µM)
[9]
  MIC: > 1000 µg/mL
[10]
  MIC: > 1000 µg/mL
[11]
  MIC: > 1000 µg/mL
[12]
  MIC: > 1000 µg/mL
[13]
  MIC: > 1000 µg/mL
[14]
  MIC: > 1000 µg/mL
[15]
  MIC: 1000 µg/mL (≈ 1690 µM)
[16]
  MIC: 125 µg/mL (≈ 211 µM)
[16]; [17]
  MIC: 62.5 to 125 µg/mL (≈ 105 to 211 µM)
